We go through one substance from patent publication US20210038732A1, “ANTICANCER MICRORNA AND LIPID FORMULATIONS THEREOF” (INTERNA TECHNOLOGIES B.V., priority 2018, published 2021).

For data set [1], the system named is 4T1 tumor microenvironment. The data set can be described thus: FACS analysis of immune cells in orthotopic 4T1 tumors (Example 4.4). In kind it is in vivo, mice. Here is the method:
Freshly isolated orthotopic 4T1 tumors were prepared for FACS analysis on day 5 (week 1) and day 12 (week 2) post miRNA-193a treatment when they reached a min tumor volume (TV) of 300 mm^3. Tumor samples were digested using murine tumor dissociation kit from Miltenyi (CAT #130-096-730). Following tumor cell digestion cells were re-suspended in 200 μl staining buffer with […] Fc-Block (Mouse BD Fc Block™ CAT #553141) and incubated at 4° C. for 15 minutes in the dark. Different markers (CD45, CD3, CD4, CD8, FoxP3, CD335, F4/80, CD11b, Gr-1, CD73, LAG3/CD223, IL-2, IFN-r, PD-1, L/D stain) have been used for FACS analysis. Antibody mixture for all markers except IL-2, IFN-r and LAG3 were diluted in Fc blocking buffer for each sample and stained for 30 min on ice, in the dark. Then, cells were gently washed by adding 2 ml of ice cold PBS to each tube. Each tube was centrifuged at 300 g for 5 minutes and supernatant was discarded. To detect intracellular markers (IL-2, IFN-r and LAG3) stimulation of the digested cells was performed. To do so, Leukocyte Activation Cocktail, with BD GolgiPlug™ was used. The cocktail was thawed at 37° C. in a water bath rapidly and for every 1 mL of cell culture (e.g., ˜10^6 cells/mL) 2 μL of cocktail was added and mixed thoroughly. To stimulate, cell culture mix was placed in a 37° C. humidified CO2 incubator for 4-6 hr. Then the cells were harvested and washed with FACS staining buffer. For staining, cell pellet was resuspended with pulse vortex and 200 ul of prepared Fixation/Permeabilization was added to each sample. Samples were incubated for 10 min at RT in the dark. Then, samples were washed twice by adding 1 ml of 1× Permeabilization Buffer (made from 10× Permeabilization Buffer, diluted with distilled H2O) followed by centrifugation and decanting of supernatant and each sample was incubated with the antibody cocktail containing FoxP3, IFN-r and IL-2 in 1× Permeabilization Buffer and incubated at RT for 30 minutes in the dark. Finally, cells were resuspended in […] of staining Buffer and analyzed on cytometer. The data was analysed by Kaluza flow cytometry software (from Beckman Coulter).
Six to eight weeks old female BALB/c mice (Shanghai Lingchang Bio-Technology Co. Ltd, Shanghai, China) were injected with 3×10^5 4T1 mouse tumor cells in PBS (0.1 mL/mouse) into the mammary fat pad. At the time of randomization, the TVs ranged between 69.9 and 173.9 mm3 (median 105.7, IQR=100.7-125.4). Body weights and TVs (caliper measurements) were determined 2-3 times/week. After randomization (day 9 after tumor inoculation) mice received different treatments under different dosing regimen (see Table 9 for dosing scheme). For all groups, 4 mice are sacrificed 48h after the 2nd miRNA-193a injection in the first week and in the 2nd week. Primary tumors were surgically removed from the mammary fat pad on day 20 after inoculation. After a recovery period of 3 days, treatment was resumed for 6 more weeks until day 63. Re-growth of (distant) tumors was monitored in addition to BW, and mice were sacrificed if end-points were met.
Background: A flow cytometer gives signals particle by particle.

The test system of data set [2] is A2058. Briefly: Cell viability (MTS assay or cell count). In kind it is cell-based, human. As to conditions: 10 nM; Melanoma A2058; normalized to mock. Here is the method: (§1) Depending on cancer cell type 3000-6000 cells were seeded in a 96 well plate. After cells attached, they were transfected with different concentrations of miRNA-193a and viability was measured at different time points. Viability measurement was performed using CellTiter 96 AQueous One Solution Cell Proliferation Assay (Promega). 20 μL of MTS reagent was added to 100 μL of media in each well in 96-well plate and incubated for 2 hours at 37° C. Absorbance was measured at 490 nm for each sample in 96 well plate reader.
(§2) Different biological effects of miRNA-193a-3p have been tested in various cancer cell lines (see Table 13). For this, various cells were treated with miRNA-193a at different concentrations (1, 3, 10 nM). For all experiments controls (untreated, mock and scrambled) were measured. […] Data shown in Table 13 are the results for miRNA-193a at 10 nM concentration at indicated time points. All the results have been quantified and normalized to the mock control.
(§3) miRNA-193a treatment in various cancer cell lines decreased cell viability over time as measured by either an MTS assay or by cell count. It enhanced apoptosis induction over time as measured by a caspase 3/7 apoptosis assay. […] It is of note that due to intrinsic characteristics and gene mutation status of each cell line, performing one method to detect apoptosis is not always ideal for all cell lines.
(In general: Tetrazolium dyes change colour on reduction, which living cells bring about.)

For data set [3], the system named is A549, H460. Briefly: Cell viability (MTS assay or cell count). In kind it is cell-based, human. To be noted: 10 nM; NSCLC A549, H460; normalized to mock. The procedure:
as §1, §2, §3

Data set [4] concerns HeP3B, SNU449. Briefly: Cell viability (MTS assay or cell count). In kind it is cell-based, human. To be noted: 10 nM, HCC HeP3B, normalized to mock. The procedure:
as §1, §2, §3

Data set [5] has as its system Huh7. Briefly: Cell viability (MTS assay or cell count). It is filed as cell-based, human. To be noted: 10 nM; HCC Huh7; normalized to mock. Here is the method:
as §1, §2, §3

Data set [6] deals with A2058. The data set can be described thus: Cell motility, Boyden chamber assay. It is filed as cell-based, human. To be noted: 10 nM. Here is the method: (§4) To check the migratory ability of cells, a Boyden Chamber assay was performed, which is based on a chamber of two medium-filled compartments separated by a […] pore size membrane (BD falcon). In this assay, depending on cell type 60,000-120,000 cells were seeded in the upper compartment of the membrane in serum free medium and were allowed to migrate through the pores of the membrane into the lower compartment, in which serum is present in the media. The serum acts as a chemoattractant. After an appropriate incubation time, the membrane between two compartments was fixed, stained and 6 different images from each membrane were taken. The number of migratory cells were counted using Image J analysis.
(§5) Different biological effects of miRNA-193a-3p have been tested in various cancer cell lines (see Table 13). For this, various cells were treated with miRNA-193a at different concentrations (1, 3, 10 nM). For all experiments controls (untreated, mock and scrambled) were measured. All assays were performed at 24h, 48h and 72h time points. Data shown in Table 13 are the results for miRNA-193a at 10 nM concentration at indicated time points. All the results have been quantified and normalized to the mock control.
as §3

Data set [7] has as its system A549. Briefly: Cell motility, Boyden chamber assay. It is filed as cell-based, human. As to conditions: 10 nM; A549 (first of two symbols in the cell). The procedure:
as §4, §5, §3

Data set [8] deals with HeP3B, SNU449. The data set can be described thus: Cell motility, Boyden chamber assay. In kind it is cell-based, human. To be noted: 10 nM. The procedure:
as §4, §5, §3

As for “miRNA-193a: duplex of the miRNA-193a-3p of SEQ ID NO: 218 (mimic, sense) with antisense strand SEQ ID NO: 219; naked in vitro, formulated in vivo (sense UGGGACUUUGUAGGCCAGUUTT; antisense AACUGGCCUACAAAGUCCCAGU; chemistry not given here; listed as Homo sapiens)”, the “Ratio of CD8+ T cells/Treg cells” value in data set [1] (2 weeks post start of treatment, 10 mg/kg BIW iv, diamino lipid nanoparticles) is greater than 1. The “Regulatory T cell population (FOXP3+/LAG3+)” value in data set [1] (after 1 week) and in data set [1] (after 2 weeks) was “significant decrease” each time. In data set [1] (after 1 week, CD45+ tumor cell population), the “T-cell function (production of IFNγ and IL-2)” value is on record as “significant increase”. In data set [1] (after 2 weeks), the “T-cell frequency (CD8+)” value is recorded as “significant increase”. The “T-cell function (IFNγ)” value in data set [1] (after 2 weeks) is “mild induction”. In addition, in data set [1] (week 1 and week 2, 48h after administration), the “CD73 (NT5E) expression level in immune cells” value is recorded as “down-regulated”. Further, the “Viability (96 h)” value in data set [2], in data set [3], in data set [4] and in data set [5] was “↓↓ (Viability < 50%)” each time. The “Motility (18 to 24 h)” value in data set [6], in data set [7] and in data set [8] was “↓” throughout.
